Several values for one entry are separate records, joined by “and”; a condition that tells them apart may be missing. Equal values may be shown once. Read-outs that look alike come from different tables or passages of the source.
Assays:
[1] = biological target: CYP2D6 (Homo sapiens, UniProt P10635); test: Drug biotransformation cocktail: dextromethorphan
Procedure: (§1) Comparative CYP450 biotransformation studies were performed to assess functionality across a number of gold standard primary hepatocyte models. Cryopreserved PHHs were obtained from a single donor (Lonza, Breda, The Netherlands) or pooled donors (Thermo Scientific, Merelbeke, Belgium). Upon thawing, cell suspensions (0.5 million cells/ml) were prepared in WE medium using 24-well plates (0.5 ml/well) on an orbital shaker and metabolization activity was assessed following a 15 min equilibration period. Human Hepatopac® plates were obtained from Ascendance Biotechnology (Ascendance Biotechnology, Boston USA) and cultures were maintained following instructions of the provider. Spheroid cultures were generated in-house as essentially described by Bell et al.[42].
(§2) Finally, the system was re-equilibrated at 60% (A)/40% (B) for an additional 0.7 min. Total run time was 3.8 min and 2 µl aliquots were injected onto the system for analysis.
(§3) All data collection, processing, and analysis was performed with Analyst® software (v1.6.2. SCIEX).

[2] = test system: CYP3A4; test: qRT-PCR CYP3A4 expression in HepG2; format: cell-based, human; details: single amino acid supplementation, relative to CTL (CTL values equal HepG2 D7 CTL)
Procedure: AA supplementation was accomplished through the addition of MEM Non-Essential Amino Acids Solution (100 × ) and MEM Amino Acids Solution (50 × ) (Thermo Scientific) to the culture medium. For AA1, AA2, and AA3 medium, we added respectively 2 ml, 8 ml, and 16 ml of non-essential AA solution and 1 ml, 4 ml, and 8 ml of essential AA solution per 100 ml of LDM, with or without glucose. Culture medium was then made PH neutral through the addition of NaOH. […] PSC derived HLCs were differentiated in LDM until D12. AA supplementation (AA1, AA2 and AA3) was performed from day 12 until day 20, 30 or 40 of differentiation. […] HepG2, HUH7.5, Hep3B, HHL5, and HEK293 cells were maintained in DMEM supplemented with 10% fetal bovine serum as shown in Supplementary Table 4. AA supplementation consisted of addition of 16 ml of non-essential AA mix and 8 ml of essential AA mix per 100 ml of medium and a further addition of 20 g/l of any of the single AAs. […] PHHs were maintained in a medium composition that was based on WE as detailed in ref. [67].
RNA extraction was performed using the GenElute Mammalian Total RNA Miniprep Kit (Sigma-Aldrich). Then, genomic DNA was eliminated using the On-Column DNase I Digestion kit (Sigma-Aldrich). Last, 1 µg of RNA was transcribed to cDNA using the Superscript III First-Strand synthesis (Invitrogen). Gene expression analysis was performed using the Platinum SYBR green qPCR supermix-UDG kit (Invitrogen) in a ViiA 7 Real-Time PCR instrument (Thermo Scientific, Waltham, MA). The sequences of all used qRT-PCR primers are listed in Supplementary Table 6. Of these, ribosomal protein L19 (RPL19) was used as a housekeeping gene for normalization.

[3] = biological target: CYP3A4 (Homo sapiens, UniProt P08684); details: HepG2 AAGLY D32 and HC6X AAGLY D40, single exposure
Procedure: as §1, §2, §3

[4] = test system: HLCs; test: Single-exposure toxicity, Hoechst/DRAQ7 live cell number, HLCs
Procedure: (§4) PSCs were differentiated in a 384-well format. Cells were treated with 14 different concentrations of compounds in 6 repeats. As a negative control, 41 wells were left untreated. HepG2 were seeded at 40,000 cells per well. For control conditions, HepG2 were exposed after 2 days of culture. […] Cells were fixed with 4% PFA. Imaging was done using an Operetta High-Content Imaging System (Perkin Elmer) and image analysis was performed using Harmony software (Perkin Elmer). […] As a positive control, 1 donor of PHHs was seeded at 10,000 cells per well. Drugs were administrated after 8 h of attachment.

[5] = test system: HepG2; test: Single-exposure toxicity, Hoechst/DRAQ7 live cell number, HepG2; details: for IC50: Homo sapiens
Procedure: as §4

[6] = test system: PHHs; test: Single-exposure toxicity, Hoechst/DRAQ7 live cell number, PHH 12 h; details: Homo sapiens, read-out: IC50 single exposure, Mean
Procedure: as §4

[7] = test system: HC6X in the H9-ESC background; test: Single-exposure toxicity, Hoechst/DRAQ7 live cell number, HC6X (H9-ESC); details: Homo sapiens
Procedure: as §4

[8] = test system: HC6X in the BJ1-iPSC background; test: Single-exposure toxicity, Hoechst/DRAQ7 live cell number, HC6X (BJ1-iPSC); details: Homo sapiens
Procedure: as §4

CYP2D6, sequence (P10635 whole entry): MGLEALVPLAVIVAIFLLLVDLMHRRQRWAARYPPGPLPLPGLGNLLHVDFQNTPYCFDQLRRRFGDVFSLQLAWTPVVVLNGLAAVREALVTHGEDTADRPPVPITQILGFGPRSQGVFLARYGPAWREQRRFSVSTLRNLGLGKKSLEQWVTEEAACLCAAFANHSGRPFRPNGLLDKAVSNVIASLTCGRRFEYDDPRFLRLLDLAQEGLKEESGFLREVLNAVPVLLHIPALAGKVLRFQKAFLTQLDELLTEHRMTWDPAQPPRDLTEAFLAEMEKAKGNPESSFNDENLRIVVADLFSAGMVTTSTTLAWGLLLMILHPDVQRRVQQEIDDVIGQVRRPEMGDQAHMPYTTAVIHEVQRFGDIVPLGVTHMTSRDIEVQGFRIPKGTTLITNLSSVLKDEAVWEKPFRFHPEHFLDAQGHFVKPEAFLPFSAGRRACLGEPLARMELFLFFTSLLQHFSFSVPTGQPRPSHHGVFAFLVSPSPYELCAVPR
CYP3A4 (Homo sapiens, UniProt P08684), sequence (P08684 whole entry): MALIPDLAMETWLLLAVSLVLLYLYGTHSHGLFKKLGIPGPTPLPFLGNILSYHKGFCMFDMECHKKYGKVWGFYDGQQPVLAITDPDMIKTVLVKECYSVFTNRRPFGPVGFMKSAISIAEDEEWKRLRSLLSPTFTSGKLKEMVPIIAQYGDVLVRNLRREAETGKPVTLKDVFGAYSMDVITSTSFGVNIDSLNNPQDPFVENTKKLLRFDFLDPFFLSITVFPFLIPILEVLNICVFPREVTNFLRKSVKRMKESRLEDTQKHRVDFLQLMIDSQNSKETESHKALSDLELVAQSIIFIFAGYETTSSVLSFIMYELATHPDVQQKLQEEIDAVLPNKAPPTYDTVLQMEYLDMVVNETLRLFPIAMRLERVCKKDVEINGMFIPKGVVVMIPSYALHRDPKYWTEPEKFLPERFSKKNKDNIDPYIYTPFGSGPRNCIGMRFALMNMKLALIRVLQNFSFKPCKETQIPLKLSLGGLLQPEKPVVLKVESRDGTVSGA

## COc1ccc2c(c1)[C@]13CCCC[C@@H]1[C@H](C2)N(C)CC3 [Dextrometrophan]
[1]; HC6X LDM D40
  Dextrometrophan biotransformation (cocktail): 0
[1]; HepG2 AAGLY D32
  Dextrometrophan biotransformation (cocktail): 0
[1]; HepG2 CTL D4
  Dextrometrophan biotransformation (cocktail): 0
[1]; HepaRG diff D7
  Dextrometrophan biotransformation (cocktail): 0
[1]; Hepatopac
  Dextrometrophan biotransformation (cocktail): 0.5629 and 0.7098 and 0.9714
[1]; PHH1
  Dextrometrophan biotransformation (cocktail): 15.8656 and 14.7 and 17.4198

## O=C(O)[C@@H]1CCCN1 [PRO, proline]
[2]
  Relative CYP3A4 expression: 252.463 and 338.714 and 412.836

## N[C@@H](CO)C(=O)O [SER, serine]
[2]
  Relative CYP3A4 expression: 405.322 and 582.424 and 382.821

## Cc1ncc2n1-c1ccc(Cl)cc1C(c1ccccc1F)=NC2 [midazolam]
[3]
  midazolam biotransformation compared with PHHs: equal to that of PHHs

## C=C(C)[C@H]1Cc2c(ccc3c2O[C@@H]2COc4cc(OC)c(OC)cc4[C@@H]2C3=O)O1 [rotenone]
[4]; H9 HLC LDM D40
  IC50 single exposure, Mean: No toxicity
[4]; Homo sapiens, read-out: IC50 single exposure, Mean
  IC50: 5.39 nM
[5]; HepG2 CTL D7
  IC50 single exposure, Mean: No toxicity
[5]; HepG2, read-out: IC50 single exposure, Mean, HepG2 AAGLY D30
  IC50: 0.883 nM
[5]; HepG2, read-out: IC50 single exposure, Mean, HepG2 AAGLY D40
  IC50: 2.51 nM
[6]
  IC50: 1.28 nM
[7]; read-out: IC50 single exposure, Mean, H9 HC6X AAGLY D40
  IC50: 8.28 nM
[7]; read-out: IC50 single exposure, Mean, H9 HC6X AAGLY D50
  IC50: 4.2 nM
[8]; read-out: IC50 single exposure, Mean, BJ1 HC6X AAGLY D40
  IC50: 2.56 nM
[8]; read-out: IC50 single exposure, Mean, BJ1 HC6X AAGLY D50
  IC50: 7.5 nM
